Measurements published in paper PMC5365645, “Preclinical Pharmacokinetics and Pharmacodynamic Target of SCY-078, a First-in-Class Orally Active Antifungal Glucan Synthesis Inhibitor, in Murine Models of Disseminated Candidiasis” (Antimicrobial Agents and Chemotherapy, 2017).
≈ marks a conversion by molar mass, not a printed value. Where “and” joins values, the source holds several entries; their conditions need not be identical. Equal entries are not always repeated.

How the values were obtained:
C. albicans MY1055 [1] = assay: Single delayed-dose treatment model of disseminated candidiasis; details: single dose 16 h after infection, tissue burden 96 h after treatment, regression analysis
Description: Next, a single-dose treatment with SCY-078 was administered. The target endpoint for efficacy in this model was defined as a static effect on the tissue burden measured 96 h after treatment.
For the single delayed-dose treatment model, a single dose of SCY-078 was administered 16 h after infection. The target endpoint for efficacy in this model was a static effect on the tissue burden measured at 96 h posttreatment.

[2] = In vitro metabolic stability in hepatic microsomes; type: in vitro ADME, mouse; details: for remaining at 0.5 h, 1 µM: read-out: % remaining after 30 min; for half-life at 1 μM / microsomal CLint at 1 μM: pooled liver microsomes
Description: (§1) The metabolic stability of SCY-078 was assessed after incubation with mouse, rat, dog, and human liver microsomes (Table 2) ([10]). […] The half-lives in rodent, dog, and human liver microsomes were ≥125, ≥29, and ≥42 min, respectively.
(§2) The metabolic stability of SCY-078 was evaluated with male and female mouse, male rat, male and female dog, and mixed-gender human liver microsomes (XenoTech, Lenexa, KS). SCY-078 (1 μM) was incubated with pooled liver microsomes (0.5 mg protein/ml) for 0, 5, 10, 20, and 30 min at 37°C in the presence of NADPH. Aliquots were taken at each sampling time point and extracted with 5 volumes of ice-cold acetonitrile containing the internal standard (d9-SCY-078, 125 ng/ml). Supernatants from the incubation mixtures were analyzed for the parent compound by LC-MS/MS according to the conditions described below. The metabolic competency of microsomal preparations was established using the control compounds 7-ethoxycoumarin, propranolol, and verapamil. The in vitro intrinsic clearance (CLint), the CLint scaled to the in vivo intrinsic clearance (CL′int), and the half-life were determined for SCY-078 incubated with microsomes from each species.

[3] = test system: C. glabrata isolate CG 5592; parameters: method as in PMID 25512406; details: stasis ref 6; cited from earlier work
pKa values = type: physicochemical
[4] = Immediate treatment murine model of disseminated candidiasis; details: DBA/2N, mouse, plasma, po
C. albicans MY1055 [5] = assay: as above
[6] = In vitro metabolic stability in hepatic microsomes, rodent summary; type: in vitro ADME, mouse and rat
Description: as §1, §2

[7] = Biological distribution to kidney tissue after oral delivery; details: for Time to which concentrations would remain measurable in kidney: after dose 13, predicted from elimination rate constant
Description: Female CD-1 mice (n = 5/sex/time point/group) weighing approximately 25 g were administered SCY-078 by oral gavage either once daily or as multiple twice-per-day (Q12h) treatments, with individual doses ranging between 3 and 100 mg/kg (6 to 150 mg/kg/day). Mice also received a single 1-mg/ml i.v. dose of SCY-078. Plasma specimens were collected prior to dosing and at 0.25, 0.5, 1, 2, 4, 6, 9, 12, 18, 24, 36, 48, and 60 h after the single i.v. dose and at the same time points from 1 h postdose onward following oral dose 13 on day 7 of treatment. On the first day of oral treatment, plasma specimens were collected immediately before each of the two doses and 1, 2, 4, 6, 9, and 12 h postdosing. […] Kidney tissues were collected at 2, 4, 12, 24, 36, 48, and 60 h after oral dose 13 on treatment day 7, blotted dry, and stored at approximately −80°C until analysis.
On the day of analysis, either treatment-naive (drug-free) kidney tissue or freshly thawed tissue samples from PK studies were weighed and homogenized in 3 volumes of phosphate-buffered saline. The density of kidney tissue used for the determination of volume was assumed to be 1.0 g/ml.
Whole-kidney tissue samples were homogenized in parallel by means of a Precellys 24 bead mill homogenizer (Bertin Technologies, Montigny le Bretonneux, France) using 2-ml Precellys tubes containing 1.4-mm-diameter ceramic beads (CK14) and a single 15-s cycle of 5,500 rpm. Parallel bead homogenization increased throughput and avoided potential cross-contamination of samples since each sample was wholly contained and homogenized within its own sealed vial with no direct contact between the homogenizing instrument or other samples.
Mouse plasma (50 μl) or kidney tissue homogenate (50 μl) was treated with 5 volumes of acetonitrile containing 50 ng of deuterium (d9)-labeled SCY-078 internal standard/ml to precipitate proteins. Treated samples were mixed on a 96-well plate shaker for ∼30 min and then centrifuged at approximately 4,000 × g and 15°C for 15 min. Supernatants were transferred to fresh 96-well plates for analysis by LC-MS/MS.

logD = type: physicochemical
[8] = test system: C. glabrata isolate CG 5592; parameters: method as in PMID 25512406; details: cited from earlier work
[9] = Volume of distribution after i.v. administration; details: in vivo, iv, Rhesus monkey, no source reference printed, read-out: Vd ss
Description: TABLE 7 Volume of distribution for SCY-078 and echinocandins after i.v. administration | column: Vd ss (liters/kg)^a / SCY-078

C. albicans MY1055 [10] = assay: In vitro MIC, broth microdilution CLSI M27-A3; type: cell-based; details: Candida albicans, 50% inhibition of fungal growth at 24 h
Description: A disseminated Candida infection was induced in C′5-deficient DBA/2N mice (Taconic Farms, Germantown, NY), weighing on average 20 g, by i.v. inoculation with C. albicans MY1055 (Merck Culture Collection). C. albicans MY1055 was cultured on Sabouraud dextrose agar (SDA; BBL, Cockeysville, MD) plates at 35°C for 24 h. Yeast cells were washed from the surface of agar plates into sterile saline, and the cell concentrations were quantitated by using a hemocytometer. Viable cell counts were confirmed by a serial 10-fold dilution of the cell suspension and plating on SDA plates. Plates were incubated for 24 to 48 h at 35°C, whereupon the numbers of CFU were determined. The in vitro activity of SCY-078 against the MY1055 isolate was evaluated using broth microdilution assays as described in CLSI M27-A3 ([39]).

C. albicans = assay: Fractionated delayed-dose treatment model of disseminated candidiasis
Description: The fractionated delayed treatment model was used to compare the efficacy of SCY-078 when administered as divided doses of either two half doses or four quarter doses, relative to the outcome of a single dose. The total doses were 12.5, 25, and 50 mg/kg delivered by bolus intraperitoneal injection. Divided doses were administered at either 0 and 48 h or at 0, 24, 48, and 72 h relative to the single dose. […] Caspofungin and fluconazole were not evaluated in this model.
In the fractionated delayed-dose treatment model, SCY-078 was administered as divided doses of either two half doses or four quarter doses relative to the single dose. The total doses were 12.5, 25, and 50 mg/kg administered as a suspension in a “fit-for-purpose” formulation. Divided doses were administered at either 0 or 48 h or at 0, 24, 48, and 72 h relative to the single dose for the half and quarter doses, respectively. Caspofungin and fluconazole were not evaluated in this model.

[11] = Study A, 6.25 mg/kg p.o. BID, day 7
[12] = Study A, 12.5 mg/kg p.o. BID, day 7
[13] = Study A, Efficacious: projected assuming linearity
[14] = Study B, 6.25 mg/kg p.o. BID, day 7
[15] = Study B, 12.5 mg/kg p.o. BID, day 7
[16] = Study B, Efficacious: projected assuming linearity
[17] = Study C, 6.25 mg/kg p.o. BID, day 7
[18] = kidney, 12 mg/kg oral, dose 13 day 7

## CC(C)[C@@H](C)[C@@]1(C)CC[C@]2(C)[C@H]3CC[C@@H]4[C@@]5(COC[C@@]4(C)[C@@H](OC[C@](C)(N)C(C)(C)C)[C@H](n4ncnc4-c4ccncc4)C5)C3=CC[C@@]2(C)[C@@H]1C(=O)O [SCY-078, (1S,4aR,6aS,7R,8R,10aR,10bR,12aR,14R,15R)-15-[[(2R)-2-amino-2,3,3-trimethylbutyl]oxy]-8-[(1R)-1,2-dimethylpropyl]-14-[5-(4-pyridinyl)-1H-1,2,4-triazol-1-yl]-1,6,6a,7,8,9,10,10a,10b,11,12,12a-dodecahydro-1,6a,8,10a-tetramethyl-4H-1,4a-propano-2H-phenanthro[1,2-c]pyran-7-carboxylic acid]
C. albicans MY1055 [1]
  Dose achieving stasis endpoint: 10.28 mg/kg
[2]; female mouse liver microsomes
  remaining at 0.5 h, 1 µM: 88%
  half-life at 1 μM: > 2.25 h
  microsomal CLint at 1 μM: < 10 µL/min/mg
[2]; male mouse liver microsomes
  remaining at 0.5 h, 1 µM: 95%
  half-life at 1 μM: > 2.25 h
  microsomal CLint at 1 μM: < 10 µL/min/mg
[3]
  Total drug AUC0–24 target: ~18.8 µM·h
pKa values; carboxylic acid
  pKa: 5.5
pKa values; primary amine
  pKa: 9
pKa values; pyridine
  pKa: 2.4
[4]; 6.25 mg/kg, Plasma AUC0–24, Study A, 6.25 mg/kg p.o. BID, after dose 13 day 7
  AUC(0-t): 6190 ng·h/mL and 8.48 µM·h
[4]; 6.25 mg/kg, Plasma AUC0–24, Study B, 6.25 mg/kg p.o. BID, after dose 13 day 7
  AUC(0-t): 3270 ng·h/mL and 4.48 µM·h
[4]; 6.25 mg/kg, Plasma AUC0–24, Study C, 6.25 mg/kg p.o. BID, after dose 13 day 7
  AUC(0-t): 11000 ng·h/mL and 15.1 µM·h
[4]; 12.5 mg/kg, Plasma AUC0–24, Study A, 12.5 mg/kg p.o. BID, after dose 13 day 7
  AUC(0-t): 19700 ng·h/mL and 27 µM·h
[4]; 12.5 mg/kg, Plasma AUC0–24, Study B, 12.5 mg/kg p.o. BID, after dose 13 day 7
  AUC(0-t): 16200 ng·h/mL and 22.2 µM·h
[4]; Plasma AUC0–24, Study A, Efficacious: projected efficacious exposure assuming linearity
  AUC(0-t): 12900 ng·h/mL and 17.7 µM·h
[4]; Plasma AUC0–24, Study B, Efficacious: projected efficacious exposure assuming linearity
  AUC(0-t): 9710 ng·h/mL and 13.3 µM·h
C. albicans MY1055 [5]; [11]
  Kidney tissue burden: 2.78 log10 CFU/g of tissue
  Reduction from sham treatment: 3.69 log10 CFU/g of tissue
C. albicans MY1055 [5]; Study A, 6.25 mg/kg p.o. BID, day 7, five animals per group
  % animals sterilized: 40%
C. albicans MY1055 [5]; [12]
  Kidney tissue burden: 2.23 log10 CFU/g of tissue
  Reduction from sham treatment: 4.24 log10 CFU/g of tissue
C. albicans MY1055 [5]; Study A, 12.5 mg/kg p.o. BID, day 7, five animals per group
  % animals sterilized: 80%
C. albicans MY1055 [5]; [13]
  % animals sterilized: 60%
  Kidney tissue burden: 2.51 log10 CFU/g of tissue
  Reduction from sham treatment: 4 log10 CFU/g of tissue
C. albicans MY1055 [5]; [14]
  Kidney tissue burden: 3.52 log10 CFU/g of tissue
  Reduction from sham treatment: 3.35 log10 CFU/g of tissue
C. albicans MY1055 [5]; Study B, 6.25 mg/kg p.o. BID, day 7, five animals per group
  % animals sterilized: 0%
C. albicans MY1055 [5]; [15]
  Kidney tissue burden: 2.2 log10 CFU/g of tissue
  Reduction from sham treatment: 4.67 log10 CFU/g of tissue
C. albicans MY1055 [5]; Study B, 12.5 mg/kg p.o. BID, day 7, five animals per group
  % animals sterilized: 100%
C. albicans MY1055 [5]; [16]
  % animals sterilized: 50%
  Kidney tissue burden: 2.86 log10 CFU/g of tissue
  Reduction from sham treatment: 4.01 log10 CFU/g of tissue
C. albicans MY1055 [5]; [17]
  Kidney tissue burden: 2.61 log10 CFU/g of tissue
  Reduction from sham treatment: 4.35 log10 CFU/g of tissue
C. albicans MY1055 [5]; Study C, 6.25 mg/kg p.o. BID, day 7, five animals per group
  % animals sterilized: 60%
C. albicans MY1055 [5]; efficacy target, fraction bound 99.8% in mouse plasma
  Free-drug (f) AUC0–24: 0.0224 ± 0.0032 µg·h/mL
C. albicans MY1055 [5]; mean of immediate-treatment, delayed-single-dose and delayed-fractionated-dose models
  Mean therapeutic exposure (plasma AUC0–24) across all models: 14.3 µM·h
[6]; both (mouse), male (rat), pooled liver microsomes, rodent liver microsomes
  half-life at 1 μM: ≥ 2.08 h
[6]; both (mouse), male (rat), pooled liver microsomes, rodent liver microsomes, read-out: CL′int (CLint scaled to in vivo intrinsic clearance)
  CLint scaled at 1 μM: < 2.4 mL/h/kg
[6]; both (mouse), male (rat), pooled liver microsomes, rodents (mouse and rat) liver microsomes
  microsomal CLint at 1 μM: ≤ 11 µL/min/mg
[6]; both sexes, mouse, rat, liver microsomes, rodent microsomes, read-out: % remaining after 30 min
  remaining at 0.5 h, 1 µM: ~85%
[7]; 6.25 mg/kg
  Time to which concentrations would remain measurable in kidney: approximately 100 h
[7]; 12 mg/kg
  Time to which concentrations would remain measurable in kidney: ~115 h
[7]; kidney, 6.25 mg/kg oral, dose 13 day 7
  AUC0–24: 195 µg·h/mL
[7]; [18]
  AUC0–24: 553 µg·h/mL
  half-life: 8.6 h
logD; at PI
  logD: 4.9
logD; pH 7.3
  logD: ~6.4
[8]
  MIC: 0.25 µg/mL (≈ 0.342 µM)
[9]
  Vd: 4.4 L/kg
C. albicans MY1055 [10]
  MIC: 0.03 µg/mL (≈ 0.0411 µM)
C. albicans; 2 doses
  ED99: 9.83 mg/kg
C. albicans; 4 doses
  ED99: 6.93 mg/kg
C. albicans; divided, half doses (0 and 48 h)
  90% effective dose (ED90): 4.40 mg/kg
C. albicans; divided, quarter doses (0, 24, 48, 72 h)
  90% effective dose (ED90): 4.25 mg/kg
C. albicans; single dose
  90% effective dose (ED90): 5.02 mg/kg
  ED99: 13.43 mg/kg
